{"source": "PubChem BioAssay (NCI)", "experiment_in_all_cases": "NCI-60 cell line screen, 48 h", "key": {"NCI-H23 lung": {"system": "NCI-H23 lung"}, "NCI-H460 lung": {"system": "NCI-H460 lung"}, "NCI-H522 lung": {"system": "NCI-H522 lung"}, "NCI/ADR-RES ovarian": {"system": "NCI/ADR-RES ovarian"}, "OVCAR-3 ovarian": {"system": "OVCAR-3 ovarian"}, "OVCAR-4 ovarian": {"system": "OVCAR-4 ovarian"}, "OVCAR-5 ovarian": {"system": "OVCAR-5 ovarian"}, "OVCAR-8 ovarian": {"system": "OVCAR-8 ovarian"}, "PC-3 prostate": {"system": "PC-3 prostate"}, "RPMI-8226 leukemia": {"system": "RPMI-8226 leukemia"}, "RXF 393 renal": {"system": "RXF 393 renal"}, "SF-268 CNS": {"system": "SF-268 CNS"}, "SF-295 CNS": {"system": "SF-295 CNS"}, "SF-539 CNS": {"system": "SF-539 CNS"}, "SK-MEL-2 melanoma": {"system": "SK-MEL-2 melanoma"}, "SK-MEL-28 melanoma": {"system": "SK-MEL-28 melanoma"}, "SK-MEL-5 melanoma": {"system": "SK-MEL-5 melanoma"}, "SN12C renal": {"system": "SN12C renal"}, "SNB-19 CNS": {"system": "SNB-19 CNS"}, "SNB-75 CNS": {"system": "SNB-75 CNS"}, "SR leukemia": {"system": "SR leukemia"}, "SW-620 colon": {"system": "SW-620 colon"}, "T-47D breast": {"system": "T-47D breast"}, "TK-10 renal": {"system": "TK-10 renal"}, "U251 CNS": {"system": "U251 CNS"}, "UACC-257 melanoma": {"system": "UACC-257 melanoma"}, "UACC-62 melanoma": {"system": "UACC-62 melanoma"}, "UO-31 renal": {"system": "UO-31 renal"}}, "note": "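Cells were grown in 96-well plates and exposed to each compound for 48 hours at five concentrations; endpoints were interpolated linearly between bracketing concentrations, or set to the highest concentration if not reached. The concentration for 50% growth inhibition is given as GI50. TGI: total growth inhibition.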"}
{"smiles": "COc1cc2c(/C=C3\\C(=O)N(C)c4ccc(O)cc43)c[nH]c2cc1C", "values": [{"measurement": "TGI", "setting": "NCI-H23 lung", "result": 38.2, "unit": "µM"}, {"measurement": "GI50", "setting": "NCI-H460 lung", "result": 2.62, "unit": "µM"}, {"measurement": "TGI", "setting": "NCI-H460 lung", "result": 7.79, "unit": "µM"}, {"measurement": "GI50", "setting": "NCI-H522 lung", "result": 1.47, "unit": "µM"}, {"measurement": "TGI", "setting": "NCI-H522 lung", "result": 5.2, "unit": "µM"}, {"measurement": "GI50", "setting": "NCI/ADR-RES ovarian", "result": 4.17, "unit": "µM"}, {"measurement": "TGI", "setting": "NCI/ADR-RES ovarian", "result": 25.9, "unit": "µM"}, {"measurement": "GI50", "setting": "OVCAR-3 ovarian", "result": 3.86, "unit": "µM"}, {"measurement": "TGI", "setting": "OVCAR-3 ovarian", "result": 22.6, "unit": "µM"}, {"measurement": "GI50", "setting": "OVCAR-4 ovarian", "result": 5.3, "unit": "µM"}, {"measurement": "TGI", "setting": "OVCAR-4 ovarian", "result": "> 100", "unit": "µM"}, {"measurement": "GI50", "setting": "OVCAR-5 ovarian", "result": 22, "unit": "µM"}, {"measurement": "TGI", "setting": "OVCAR-5 ovarian", "result": 42.5, "unit": "µM"}, {"measurement": "GI50", "setting": "OVCAR-8 ovarian", "result": 3.38, "unit": "µM"}, {"measurement": "TGI", "setting": "OVCAR-8 ovarian", "result": 14.5, "unit": "µM"}, {"measurement": "GI50", "setting": "PC-3 prostate", "result": 3.5, "unit": "µM"}, {"measurement": "TGI", "setting": "PC-3 prostate", "result": 15.6, "unit": "µM"}, {"measurement": "GI50", "setting": "RPMI-8226 leukemia", "result": 3.54, "unit": "µM"}, {"measurement": "TGI", "setting": "RPMI-8226 leukemia", "result": 17.2, "unit": "µM"}, {"measurement": "GI50", "setting": "RXF 393 renal", "result": 4.89, "unit": "µM"}, {"measurement": "TGI", "setting": "RXF 393 renal", "result": 45.2, "unit": "µM"}, {"measurement": "GI50", "setting": "SF-268 CNS", "result": 5.29, "unit": "µM"}, {"measurement": "TGI", "setting": "SF-268 CNS", "result": 46.4, "unit": "µM"}, {"measurement": "GI50", "setting": "SF-295 CNS", "result": 2.64, "unit": "µM"}, {"measurement": "TGI", "setting": "SF-295 CNS", "result": 17.3, "unit": "µM"}, {"measurement": "GI50", "setting": "SF-539 CNS", "result": 1.56, "unit": "µM"}, {"measurement": "TGI", "setting": "SF-539 CNS", "result": 3.74, "unit": "µM"}, {"measurement": "GI50", "setting": "SK-MEL-2 melanoma", "result": 2.12, "unit": "µM"}, {"measurement": "TGI", "setting": "SK-MEL-2 melanoma", "result": 6.33, "unit": "µM"}, {"measurement": "GI50", "setting": "SK-MEL-28 melanoma", "result": 2.99, "unit": "µM"}, {"measurement": "TGI", "setting": "SK-MEL-28 melanoma", "result": 28.1, "unit": "µM"}, {"measurement": "GI50", "setting": "SK-MEL-5 melanoma", "result": 3.87, "unit": "µM"}, {"measurement": "TGI", "setting": "SK-MEL-5 melanoma", "result": 13.2, "unit": "µM"}, {"measurement": "GI50", "setting": "SN12C renal", "result": 14.6, "unit": "µM"}, {"measurement": "TGI", "setting": "SN12C renal", "result": 47.2, "unit": "µM"}, {"measurement": "GI50", "setting": "SNB-19 CNS", "result": 6.16, "unit": "µM"}, {"measurement": "TGI", "setting": "SNB-19 CNS", "result": 52.9, "unit": "µM"}, {"measurement": "GI50", "setting": "SNB-75 CNS", "result": 5.7, "unit": "µM"}, {"measurement": "TGI", "setting": "SNB-75 CNS", "result": 37, "unit": "µM"}, {"measurement": "GI50", "setting": "SR leukemia", "result": 2.88, "unit": "µM"}, {"measurement": "TGI", "setting": "SR leukemia", "result": "> 100", "unit": "µM"}, {"measurement": "GI50", "setting": "SW-620 colon", "result": 3.83, "unit": "µM"}, {"measurement": "TGI", "setting": "SW-620 colon", "result": 34, "unit": "µM"}, {"measurement": "GI50", "setting": "T-47D breast", "result": 4.05, "unit": "µM"}, {"measurement": "TGI", "setting": "T-47D breast", "result": 39.7, "unit": "µM"}, {"measurement": "GI50", "setting": "TK-10 renal", "result": 6.04, "unit": "µM"}, {"measurement": "TGI", "setting": "TK-10 renal", "result": 32.6, "unit": "µM"}, {"measurement": "GI50", "setting": "U251 CNS", "result": 3.35, "unit": "µM"}, {"measurement": "TGI", "setting": "U251 CNS", "result": 32.2, "unit": "µM"}, {"measurement": "GI50", "setting": "UACC-257 melanoma", "result": 2.54, "unit": "µM"}, {"measurement": "TGI", "setting": "UACC-257 melanoma", "result": 7.01, "unit": "µM"}, {"measurement": "GI50", "setting": "UACC-62 melanoma", "result": 9.73, "unit": "µM"}, {"measurement": "TGI", "setting": "UACC-62 melanoma", "result": 30.3, "unit": "µM"}, {"measurement": "GI50", "setting": "UO-31 renal", "result": 3.07, "unit": "µM"}, {"measurement": "TGI", "setting": "UO-31 renal", "result": 12.6, "unit": "µM"}]}
